Tests used:
[1] = test system: BaF3; assay: Growth of parental BaF3 cells, Cell Titer-Glo, 72 h; assay type: cell-based; settings: Mus musculus
[2] = test system: BaF3-tel-PDGFRα (stably expressing PDGFRα kinase); assay: Growth of BaF3-tel-PDGFRα cells, Cell Titer-Glo, 72 h; assay type: cell-based, mouse
[3] = target: T1, BaF3-FL-BRAF-V600E (stably expressing BRAF-V600E kinase) (Homo sapiens, UniProt P15056, V600E); assay: Growth of BaF3-FL-BRAF-V600E cells, Cell Titer-Glo, 72 h; assay type: cell-based, mouse
T1 construct: human BCR-ABL (P210 or P210/T315I mutated), full-length BRAF-V600E; expressed in transfected cells; host or cells: mouse BaF3, retroviral MSCV-Puro
T1 sequence (P15056 whole entry V600E): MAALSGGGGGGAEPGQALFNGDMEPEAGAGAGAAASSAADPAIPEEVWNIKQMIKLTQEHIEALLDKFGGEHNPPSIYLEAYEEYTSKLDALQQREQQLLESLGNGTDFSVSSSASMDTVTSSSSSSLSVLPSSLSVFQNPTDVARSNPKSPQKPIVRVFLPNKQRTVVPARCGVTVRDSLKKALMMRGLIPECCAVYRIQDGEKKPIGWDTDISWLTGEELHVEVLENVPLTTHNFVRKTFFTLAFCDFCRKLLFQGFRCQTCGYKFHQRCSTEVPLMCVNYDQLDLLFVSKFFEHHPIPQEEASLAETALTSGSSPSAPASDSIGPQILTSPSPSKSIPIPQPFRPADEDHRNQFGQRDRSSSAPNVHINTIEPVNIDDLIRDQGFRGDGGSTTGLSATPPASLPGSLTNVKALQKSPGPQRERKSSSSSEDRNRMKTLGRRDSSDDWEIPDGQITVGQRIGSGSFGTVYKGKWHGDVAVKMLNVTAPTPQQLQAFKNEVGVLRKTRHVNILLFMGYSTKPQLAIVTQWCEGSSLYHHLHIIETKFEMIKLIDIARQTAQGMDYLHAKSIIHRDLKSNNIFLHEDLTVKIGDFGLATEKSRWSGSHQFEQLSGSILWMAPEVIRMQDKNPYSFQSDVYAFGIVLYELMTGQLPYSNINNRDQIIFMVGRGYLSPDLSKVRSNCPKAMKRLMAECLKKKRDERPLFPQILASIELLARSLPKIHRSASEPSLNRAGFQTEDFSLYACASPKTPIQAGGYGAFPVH
Source text: (§1) In this example, mouse primary B cell BaF3 (purchased from ATCC, U.S.A.) was used. In addition, in this example, mouse BaF3-tel-PDGFRα (stably expressing PDGFRα kinase), mouse BaF3-tel-PDGFRβ (stably expressing PDGFRβ kinase), BaF3-P210 (stably expressing ABL kinase), BaF3-P210-T315I (stably expressing ABL-T315I kinase), BaF3-FL-BRAF-V600E (stably expressing BRAF-V600E kinase), BaF3-TEL-cKIT (stably expressing cKIT kinase), BaF3-TEL-VEGFR2 (stably expressing VEGFR2 kinase), BaF3-TEL-FGFR2 (stably expressing FGFR2 kinase) were also used. The above-mentioned cell trains were all constructed in our laboratory by the method as follows. The sequences of human BCR-ABL (P210 or P210/T315I mutated), full-length BRAF-V600E, cKIT, VEGFR2, FGFR2, PDGFRα, PDGFRβ kinase region were amplified respectively via PCR, and inserted respectively into a MSCV-Puro vector (purchased from Clontech) having a N-terminal TEL fragment and/or NPM fragment and/or TPR fragment, and stably transferred into mouse BaF3 cells by the retroviral method, and the growth factor IL-3 was removed. Eventually, cell lines which are transferred into proteins depending on PDGFRα, PDGFRβ were obtained.
(§2) In this example, solutions of the test compound at different concentrations (0.000508 μM, 0.00152 μM, 0.00457 μM, 0.0137 μM, 0.0411 μM, 0.123 μM, 0.370 μM, 1.11 μM, 3.33 μM, 10 μM) were added to the above cells. […]

[4] = test system: BaF3-tel-PDGFRβ (stably expressing PDGFRβ kinase); assay: Growth of BaF3-tel-PDGFRβ cells, Cell Titer-Glo, 72 h; assay type: cell-based, mouse
[5] = test system: BaF3-TEL-cKIT (stably expressing cKIT kinase); assay: Growth of BaF3-TEL-cKIT cells, Cell Titer-Glo, 72 h; assay type: cell-based, mouse
Source text: as §1, §2

[6] = test system: BaF3-TEL-FGFR2 (stably expressing FGFR2 kinase); assay: Growth of BaF3-TEL-FGFR2 cells, Cell Titer-Glo, 72 h; assay type: cell-based, mouse
Source text: as §1, §2

[7] = test system: human chronic eosinophilic leukemia cells EOL-1 (expressing PDGFRα); assay: Mouse tumor model of human chronic eosinophilic leukemia cells EOL-1; assay type: in vivo
Description: • 1) Bal b/c female mice, 4-6 weeks old, were purchased from Shanghai SLAC Laboratory Animal Co., Ltd., and were raised in an SPF laboratory; the drinking water and the bedding were both sterilized by autoclaving; and all the operations involving the mice were performed under aseptic conditions; • 2) On Day 0, 1×10^7 human chronic eosinophilic leukemia cells EOL-1 (expressing PDGFRα) (purchased from ATCC) were injected subcutaneously into the left flank of each of the mice; • 3) On Day 15, the mice were randomly divided into four groups with five mice per group, and were administered respectively for 14 days. […] The tumor volume was calculated as length×width×width/2 mm^3.

[8] = test system: BaF3-TEL-VEGFR2 (stably expressing VEGFR2 kinase); assay: Growth of BaF3-TEL-VEGFR2 cells, Cell Titer-Glo, 72 h; assay type: cell-based, mouse
Source text: as §1, §2

[9] = test system: BaF3-P210 (stably expressing ABL kinase; BCR-ABL P210); assay: Growth of BaF3-P210 cells, Cell Titer-Glo, 72 h; assay type: cell-based, mouse
Source text: as §1, §2

GI50 [2]: 0.056 µM | GI50 ([3]; BaF3-FL-BRAF-V600E cells, 72 hours): 4.7 µM | GI50 [4]: 0.43 µM | GI50 ([5]; BaF3-TEL-cKIT cells, 72 hours): 5.34 µM | GI50 ([6]; BaF3-TEL-FGFR2 cells, 72 hours): 3.26 µM | GI50 ([8]; BaF3-TEL-VEGFR2 cells, 72 hours): 4 µM | GI50 ([9]; BaF3-P210 cells, 72 hours): > 10 µM
Structure (SMILES): Cc1ccc(NC(=O)c2cccc(C(F)(F)F)n2)cc1-n1cc(-c2cncc(N3CCN(C)CC3)c2)cn1 [Compound 1, N-(4-methyl-3-(4-(5-(4-methylpiperazin-1-yl)pyridin-3-yl)-1H-pyrazol-1-yl)phenyl)-6-(trifluoromethyl)picolinamide]
GI50 [1]: 4.08 µM | inhibitory effect against BRAF-V600E (in words) ([3]; summary of Table 2): no inhibitory effect, or a relatively weak inhibitory effect | inhibitory effect against cKIT (in words) ([5]; summary of Table 2): no inhibitory effect, or a relatively weak inhibitory effect | inhibitory effect against FGFR2 (in words) ([6]; summary of Table 2): no inhibitory effect, or a relatively weak inhibitory effect | tumor growth inhibitory rate (TGI) ([7]; 5 mg/kg, 14 days after administration, by tumor weight vs control group, FIG. 1c): 96% | effect on tumor size (in words) ([7]; 5 mg/kg, FIG. 1b): excellent effect in inhibiting the tumor | effect on the body weight of the mouse (in words) ([7]; EOL-1 mouse model, 14 days administration, FIG. 1a): little effect on the body weight | inhibitory effect against VEGFR2 (in words) ([8]; summary of Table 2): no inhibitory effect, or a relatively weak inhibitory effect | inhibitory effect against ABL (in words) ([9]; summary of Table 2): no inhibitory effect, or a relatively weak inhibitory effect

— patent publication US12310963B2, “Pyrazole derivatives and use thereof” (Tarapeutics Science Inc., priority 2019, dated 2025)
